According to DBAASP:
Values after ≈ are worked out from the molar mass of the structure shown.

Columns and labels:
Assay in all cases: ≥ marks a high value that may be exact or a test limit, other limits are often not marked, values filed in µg/mL are converted to µM
[1] = test system: Staphylococcus aureus ATCC 25923
[2] = test system: Klebsiella pneumoniae ATCC 700603
[3] = test system: Pseudomonas aeruginosa ATCC 10145
Escherichia coli MG1655 = test system: Escherichia coli MG1655
[4] = test system: Micrococcus luteus ATCC 4698
[5] = test system: Legionella pneumophila Lens
[6] = test system: Staphylococcus aureus KCTC 1621
[7] = test system: Escherichia coli ATCC 25922
[8] = test system: Escherichia coli KCTC 1682
[9] = test system: Pseudomonas aeruginosa KCTC 1637
[10] = test system: Staphylococcus aureus USA 100
[11] = test system: Staphylococcus aureus USA 300
[12] = test system: Pseudomonas aeruginosa ATCC 9027
[13] = test system: Candida albicans ATCC 90028
[14] = test system: Staphylococcus epidermidis KCTC 1917
Escherichia coli K88 = test system: Escherichia coli K88
[15] = test system: Salmonella enterica subsp. enterica serovar Typhimurium C77-31
[16] = test system: Staphylococcus aureus ATCC 43300
Escherichia coli UB1005 = test system: Escherichia coli UB1005
[17] = test system: Candida tropicalis CGMCC 2.1975
[18] = test system: Pseudomonas aeruginosa ATCC 27853
Escherichia coli K99 = test system: Escherichia coli K99
[19] = test system: Salmonella enterica subsp. enterica serovar Typhimurium ATCC 14028
Escherichia coli 078 = test system: Escherichia coli 078
[20] = test system: Candida parapsilosis CGMCC 2.3989
[21] = test system: Staphylococcus epidermidis ATCC 12228
[22] = test system: Salmonella enterica subsp. enterica serovar Pullorum ATCC 7913
Staphylococcus xylosus = test system: Staphylococcus xylosus
[23] = test system: Escherichia coli DH5alpha

In the case of `CC(C)C[C@H](NC(=O)[C@H](Cc1ccc(O)cc1)NC(=O)[C@H](Cc1cnc[nH]1)NC(=O)[C@H](CCCCN)NC(=O)[C@H](CC(C)C)NC(=O)[C@H](C)NC(=O)[C@H](CC(C)C)NC(=O)[C@H](CCCCN)NC(=O)CNC(=O)[C@@H](NC(=O)[C@@H](NC(=O)[C@H](CCCCN)NC(=O)[C@@H](NC(=O)[C@H](CCC(=O)O)NC(=O)[C@H](C)NC(=O)[C@H](CCCCN)NC(=O)[C@H](CCCCN)NC(=O)[C@H](CC(C)C)NC(=O)[C@H](CC(C)C)NC(=O)[C@@H](NC(=O)[C@H](CCCCN)NC(=O)[C@H](Cc1c[nH]c2ccccc12)NC(=O)CN)[C@@H](C)O)C(C)C)[C@@H](C)O)C(C)C)C(=O)O` [GWKTLLKKAEVKTVGKLALKHYL], the MIC [1] is reported as 2.32 µM (≈ 6.09 µg/mL), the MIC [2] is reported as > 9.3 µM and the MIC [3] is reported as 0.29 µM (≈ 0.761 µg/mL). The MIC (Escherichia coli MG1655) was 9.3 µM (≈ 24.4 µg/mL).

For `CC(C)C[C@@H]1NC(=O)[C@H](CCCN=C(N)N)NC(=O)[C@H](CCCCN)NC(=O)[C@H](Cc2c[nH]c3ccccc23)NC(=O)CNC(=O)CNC(=O)[C@@H](N)CSSC[C@@H](C(=O)O)NC(=O)[C@H](CCCN=C(N)N)NC1=O` [CGGWKRLRC], the MIC [4] was 13 µM (≈ 14 µg/mL).

Work on `CC[C@H](C)[C@H](NC(=O)[C@H](C)NC(=O)[C@H](CCCCN)NC(=O)[C@@H](NC(=O)[C@@H](NC(=O)[C@H](CCC(=O)O)NC(=O)[C@@H](NC(=O)[C@@H](NC(=O)[C@H](CCCCN)NC(=O)CNC(=O)[C@H](CC(C)C)NC(=O)[C@@H](NC(=O)[C@H](CC(=O)O)NC(=O)[C@H](CCC(N)=O)NC(=O)[C@H](Cc1ccccc1)NC(=O)[C@@H](NC(=O)[C@H](CCC(N)=O)NC(=O)[C@@H](N)CCSC)[C@@H](C)O)[C@@H](C)CC)C(C)C)[C@@H](C)CC)C(C)C)[C@@H](C)CC)C(=O)N[C@H](C(=O)N[C@@H](CC(=O)O)C(=O)N[C@@H](C)C(=O)N[C@@H](CCCCN)C(=O)O)C(C)C` [MQTFQDILGKVIEVIKAIVDAK] yielded an MIC [5] of 5.08 µM (≈ 12.5 µg/mL).

With `CC[C@H](C)[C@H](NC(=O)[C@H](CC(C)C)NC(=O)CNC(=O)[C@H](CCCCN)NC(=O)[C@@H](NC(=O)[C@@H](NC(=O)[C@H](CCC(=O)O)NC(=O)[C@@H](NC(=O)[C@@H](NC(=O)[C@H](CCCCN)NC(=O)[C@H](C)NC(=O)[C@@H](NC(=O)[C@@H](NC(=O)[C@H](CC(=O)O)NC(=O)[C@H](C)NC(=O)[C@@H](N)CCSC)C(C)C)[C@@H](C)CC)[C@@H](C)CC)C(C)C)[C@@H](C)CC)C(C)C)C(=O)N[C@@H](CC(=O)O)C(=O)N[C@@H](CCC(N)=O)C(=O)N[C@@H](Cc1ccccc1)C(=O)N[C@H](C(=O)N[C@@H](CCC(N)=O)C(=O)N[C@@H](CCCCN)C(=O)O)[C@@H](C)O` [MADVIAKIVEIVKGLIDQFTQK] the MIC [5] was 1.27 µM (≈ 3.12 µg/mL).

Compound `CC[C@H](C)[C@H](NC(=O)[C@H](CC(C)C)NC(=O)[C@H](CC(=O)O)NC(=O)[C@@H](NC(=O)[C@@H](NC(=O)[C@H](Cc1ccccc1)NC(=O)[C@H](CCC(N)=O)NC(=O)[C@@H](N)CCSC)[C@@H](C)CC)[C@@H](C)O)C(=O)NCC(=O)N[C@@H](CCCCN)C(=O)N[C@@H](C)C(=O)N[C@H](C(=O)N[C@@H](CC(=O)O)C(=O)N[C@@H](Cc1ccccc1)C(=O)N[C@@H](Cc1ccccc1)C(=O)N[C@@H](CCCCN)C(=O)NCC(=O)N[C@@H](CC(C)C)C(=O)N[C@@H](Cc1ccccc1)C(=O)NCC(=O)N[C@@H](CC(N)=O)C(=O)N[C@@H](CCCCN)C(=O)O)C(C)C` [MQFITDLIGKAVDFFKGLFGNK] has an MIC [5] of 3.7 µM (≈ 9.21 µg/mL).

Compound `NC(=O)[C@H](CCCN=C(N)N)NC(=O)[C@H](Cc1c[nH]c2ccccc12)NC(=O)[C@H](CCCN=C(N)N)NC(=O)[C@H](Cc1c[nH]c2ccccc12)NC(=O)[C@H](CCCN=C(N)N)NC(=O)[C@@H](N)Cc1c[nH]c2ccccc12` [WRWRWR] has an MIC [6] of 7.65 µM (≈ 7.99 µg/mL), an MIC [1] of 7.18 µM (≈ 7.49 µg/mL) and an MIC [7] of 7.18 µM (≈ 7.49 µg/mL). It also gave an MIC [8] of 3.83 µM (≈ 4 µg/mL), an MIC [9] of 15.3 µM (≈ 16 µg/mL) and an MIC [10] of 25 µM (≈ 26.1 µg/mL). For the same compound, the MIC [11] was 25 µM (≈ 26.1 µg/mL), the MIC [12] was > 100 µM and the MIC [13] was ≥ 100 µM. The MIC [14] was 7.65 µM (≈ 7.99 µg/mL).

Compound `CC[C@H](C)[C@H](NC(=O)[C@H](CCCN=C(N)N)NC(=O)[C@H](C)NC(=O)[C@H](C)N)C(=O)N[C@H](C(=O)N[C@@H](CC(C)C)C(=O)N[C@@H](CCCN=C(N)N)C(=O)N[C@@H](Cc1c[nH]c2ccccc12)C(=O)N[C@@H](Cc1ccccc1)C(=O)N[C@@H](CCCN=C(N)N)C(=O)N[C@@H](CCCN=C(N)N)C(N)=O)[C@@H](C)CC` [AARIILRWFRR] has an MIC (Escherichia coli K88) of 2 µM (≈ 2.91 µg/mL), an MIC [1] of 8 µM (≈ 11.7 µg/mL) and an MIC [15] of 4 µM (≈ 5.83 µg/mL). The MIC [16] was 8 µM (≈ 11.7 µg/mL), the MIC (Escherichia coli UB1005) was 2 µM (≈ 2.91 µg/mL) and the MIC [17] was 4 µM (≈ 5.83 µg/mL). It also gave an MIC [18] of 8 µM (≈ 11.7 µg/mL), an MIC (Escherichia coli K99) of 2 µM (≈ 2.91 µg/mL) and an MIC [19] of 4 µM (≈ 5.83 µg/mL). The MIC (Escherichia coli 078) was 1.37 µM (≈ 2 µg/mL), the MIC [20] was 4 µM (≈ 5.83 µg/mL) and the MIC [21] was 2 µM (≈ 2.91 µg/mL). The MIC [22] was 4 µM (≈ 5.83 µg/mL).

With `CC[C@H](C)[C@H](NC(=O)[C@@H](N)CC(C)C)C(=O)N[C@@H](CCCCN)C(=O)N[C@@H](CCCN=C(N)N)C(=O)N[C@@H](CCCCN)C(=O)O` [LIKRK] the MIC (Staphylococcus xylosus) was ≥ 64 µM and the MIC [23] was ≥ 64 µM.

Compound `CC[C@H](C)[C@H](NC(=O)[C@H](CC(C)C)NC(=O)[C@@H](NC(=O)[C@H](CC(C)C)NC(=O)[C@@H](NC(=O)[C@H](CC(C)C)NC(=O)[C@H](CCCCN)NC(=O)[C@H](CCCN=C(N)N)NC(=O)[C@H](CCCCN)NC(=O)[C@@H](N)CCCN=C(N)N)[C@@H](C)CC)[C@@H](C)CC)C(=O)N[C@@H](CCCCN)C(=O)N[C@@H](CCCN=C(N)N)C(=O)N[C@@H](CCCCN)C(=O)N[C@@H](CCCN=C(N)N)C(=O)O` [RKRKLILILIKRKR] has an MIC (Staphylococcus xylosus) of 0.5 µM (≈ 0.917 µg/mL) and an MIC [23] of 8 µM (≈ 14.7 µg/mL).

In the case of `CC[C@H](C)[C@H](NC(=O)[C@H](CCCCN)NC(=O)[C@H](CCCCN)NC(=O)[C@@H](N)CCCCN)C(=O)N[C@H](C(=O)N[C@H](C(=O)N[C@H](C(=O)N[C@H](C(=O)N[C@@H](CCCCN)C(=O)N[C@@H](CCCCN)C(=O)N[C@@H](CCCCN)C(=O)O)[C@@H](C)CC)[C@@H](C)CC)[C@@H](C)CC)[C@@H](C)CC` [KKKIIIIIKKK], the MIC (Staphylococcus xylosus) is reported as 0.5 µM (≈ 0.676 µg/mL) and the MIC [23] is reported as 8 µM (≈ 10.8 µg/mL).

In the case of `CC(C)[C@H](NC(=O)[C@H](CCCCN)NC(=O)[C@H](CCCCN)NC(=O)[C@@H](N)CCCCN)C(=O)N[C@H](C(=O)N[C@H](C(=O)N[C@H](C(=O)N[C@H](C(=O)N[C@@H](CCCCN)C(=O)N[C@@H](CCCCN)C(=O)N[C@@H](CCCCN)C(=O)O)C(C)C)C(C)C)C(C)C)C(C)C` [KKKVVVVVKKK], the MIC (Staphylococcus xylosus) is reported as 8 µM (≈ 10.3 µg/mL) and the MIC [23] is reported as ≥ 64 µM.

For `CC[C@H](C)[C@H](NC(=O)[C@H](CC(C)C)NC(=O)[C@H](CCCCN)NC(=O)[C@H](CCCCN)NC(=O)[C@@H](NC(=O)[C@@H](NC(=O)[C@H](CCC(=O)O)NC(=O)[C@@H](NC(=O)[C@@H](NC(=O)[C@H](CCCCN)NC(=O)[C@H](C)NC(=O)[C@@H](NC(=O)[C@@H](NC(=O)CNC(=O)[C@H](C)NC(=O)[C@@H](N)CCSC)C(C)C)[C@@H](C)CC)[C@@H](C)CC)C(C)C)[C@@H](C)CC)C(C)C)C(=O)N[C@@H](CC(=O)O)C(=O)N[C@@H](CCC(N)=O)C(=O)N[C@@H](Cc1ccccc1)C(=O)N[C@H](C(=O)N[C@@H](CCC(N)=O)C(=O)N[C@@H](CCCCN)C(=O)O)[C@@H](C)O` [MAGVIAKIVEIVKKLIDQFTQK], the MIC [5] was 0.94 µM (≈ 2.32 µg/mL).
